Test results published in patent US20250002954A1, “Novel Compound, Use Thereof, and Method for Producing Same, and Compound-Containing Composition, Method for Producing 4-Trehalosamine, and Microorganism” (Microbial Chemistry Research Foundation, priority 2021, published 2025).

Columns and labels:
[1] = system: Mycobacterium smegmatis mc^2 (ATCC 700084); experiment: Evaluation of mycobacterium-protective activity in freeze-dried condition; type: cell-based; conditions: for Numbers of live bacterial cells (relative numbers): Mycobacterium smegmatis freeze-dried with 6% aqueous solution (final concentration 3%), test sample 3 (FD) = 1
Experimental: Using test samples 1 to 5 containing mycobacterium prepared in the following manner, microorganism-protective activity with trehalose or 4-trehalosamine in a freeze-dried condition was evaluated.
Frozen stock of mycobacterium ([…] Mycobacterium smegmatis mc^2 (American Type Culture Collection (ATCC) 700084)) was inoculated in 10 mL of Middlebrook 7H9 culture medium (manufactured by Becton, Dickinson and Company) and cultured at 37° C. for 72 hours while shaking it at 220 rpm. After culture, it was centrifuged at 3,000×g for 5 minutes, washed once with 10 mL of water, and then suspended in 10 mL of water, thus obtaining mycobacterium suspension. 50 μL of water was added to and mixed with 50 μL of this mycobacterium suspension, and the mixture was left to stand at 4° C. for 20 hours, preparing control (NF).
(§1) After mycobacterium suspension was prepared in a similar manner to test sample 1, 50 μL of 6% aqueous solution of trehalose was added to and mixed with 50 µL of the mycobacterium suspension, and the mixture was frozen at −80° C. for 10 minutes. It was then freeze-dried for 20 hours with a freeze dryer (FLEXI-DRY, manufactured by FTS systems INC., Warminster) connected to a vacuum pump (P65D, manufactured by PHIL Sato Vac INC.), preparing freeze-dried product (TRH) of mycobacterium with TRH.
Freeze-dried product (4TA) of mycobacterium with 4TA was obtained in a similar manner to the preparation method of test sample 4 except that trehalose was changed to 4-trehalosamine (4TA) in the preparation method of test sample 4.
For test samples 1 and 2, serial suspensions were made by diluting them to 1/10 with water. […]
(§2) Wells in which the number of colonies was measurable were selected and the numbers (relative numbers) of live bacterial cells per well on test samples 1, 2, 4, and 5 when the number of live bacterial cells per well on test sample 3 (FD) was “1” were calculated in consideration of the dilution concentrations of those test samples.

Bacillus subtilis 168 = experiment: Evaluation of Bacillus subtilis protective activity in freeze-dried condition; type: cell-based; conditions: for Numbers of live bacterial cells (relative numbers): Bacillus subtilis freeze-dried with 6% aqueous solution (final concentration 3%), test sample 3 (FD) = 1
Experimental: Using test samples 1 to 5 containing Bacillus subtilis prepared in the following manner, microorganism-protective activity with trehalose or 4-trehalosamine in a freeze-dried condition was evaluated.
Frozen stock of Bacillus subtilis (Bacillus subtilis 168 (obtained from ATCC)) was inoculated in 10 mL of Luria-Bertani (LB) culture medium (manufactured by Difco) and cultured at 37° C. for 24 hours while shaking it at 220 rpm. After culture, it was centrifuged at 3,000×g for 5 minutes, washed once with 10 mL of water, and then suspended in 10 mL of water, thus obtaining Bacillus subtilis suspension. 50 μL of water was added to and mixed with 50 μL of this Bacillus subtilis suspension, and the mixture was left to stand at 4° C. for 20 hours, preparing control (NF).
as §1, with “Bacillus subtilis” for “mycobacterium”
Freeze-dried product (4TA) of Bacillus subtilis with 4TA was obtained in a similar manner to the preparation method of test sample 4 except that trehalose was changed to 4-trehalosamine (4TA) in the preparation method of test sample 4.
For test samples 1 and 2, serial suspensions were made by diluting them to 1/10 with water. 100 μL of water was added to each of the freeze-dried products of test samples 3 to 5 and diluted to 1/10 with water to make their serial suspensions. […]
as §2

[2] = system: aggregated proteins Q74 and SynA53T in SH-SY5Y cells and NH-12 cells; experiment: Elimination effect on aggregated protein in cells (Q74, SynA53T); type: cell-based, human; conditions: 100 mM 4-trehalosamine, 70 μM IMCTA-C14 or 100 mM trehalose, 14 hours; SH-SY5Y and NH-12 cells
Experimental: The effect of 4-trehalosamine or trehalose analog on Q74, which is partial peptide of huntingtin (Htt), the causal protein of Huntington's disease, and SynA53T, which is a mutation of α-synuclein, the causal protein of Parkinson's disease, (both aggregated proteins) was determined in the following manner.
Neuroblastoma cells SH-SY5Y (obtained from European Collection of Authenticated Cell Cultures (ECACC)) and human neuroblastoma cells NH-12 (obtained from RIKEN BRC) were each inoculated at 14×10^4 cells/mL and cultured in DMEM culture medium at 37° C. for 48 hours.
After the culture of SH-SY5Y cells and NH-12 cells, pEGFP-Q74 vector or EGFP-alphasynuclein-A53T (both obtained from addgene), which are expression vectors of aggregated protein, were transfected with transfection reagent (Viafect, manufactured by Promega). After 24 hours from the transfection, 100 mM 4-trehalosamine, 70 μM IMCTA-C14, or 100 mM trehalose was added and the cells were further treated for 14 hours. Untreated cells without addition of the compounds were used as control. After washing the cells three times with PBS, hyposmotic fluid (solution of one tablet of cOmplete, Mini, EDTA-free Protease Inhibitor Cocktail (CM, manufactured by Merck) in 50 mL of pure water) was added and the mixture was shaken on ice for 10 minutes. It was then centrifuged at 21,300×g for 10 minutes to be separated into soluble protein (Sol) and aggregated protein (Agg) […]. Thereafter, they were turned into samples for western blotting in a similar manner to test example 10-1.
The western blotting was performed in a similar manner to test example 4 except that anti-GFP antibody (manufactured by Proteintech) was used at 1/5,000 dilution and anti-LC3 antibody (manufactured by Cell Signaling Technology) was used at 1/2,000 dilution as the primary antibodies in the method described in test example 4. The results for neuroblastoma cells SH-SY5Y are shown in FIGS. 22A and 22B, and the results for human neuroblastoma cells NH-12 are shown in FIGS. 22C and 22D. […]

SMILES | Numbers of live bacterial cells (relative numbers) [1] | protective effect on microorganisms, comparison ([1]; Mycobacterium smegmatis, freeze-dried) | Numbers of live bacterial cells (relative numbers) (Bacillus subtilis 168) | protective effect on microorganisms, comparison (Bacillus subtilis 168; Bacillus subtilis, freeze-dried) | aggregate of Q74 and aggregate of SynA53T [2]
N[C@H]1[C@H](O)[C@@H](O)[C@@H](O[C@H]2O[C@H](CO)[C@@H](O)[C@H](O)[C@H]2O)O[C@@H]1CO [4-trehalosamine] | 100 | stronger than when trehalose was added | 100 | stronger than when trehalose was added | significantly decreased
OC[C@H]1O[C@H](O[C@H]2O[C@H](CO)[C@@H](O)[C@H](O)[C@H]2O)[C@H](O)[C@@H](O)[C@@H]1O [trehalose, reference compound] | 10 | – | 10 | – | significantly decreased
